Test results reported in patent US20080103170A1, “Nicotinic Acetylcholine Receptor Ligands” (AstraZeneca AB, priority 2004, published 2008).

Molecular target: T1, α4 nAChR (Rattus norvegicus, UniProt P09483+P12390)
T1 construct: from tissue; host or cells: rat cortical brain membranes
Test: Affinity at α4 nAChR by [125I]-IPH binding to rat cortical membranes
Conditions: saturation curves fitted to a one site model
Protocol: Assay for Affinity at an α4 nAChR Receptor by Measuring the Binding of […] Binding to Rat Cortical Membranes
A procedure modified from Martino-Barrows and Kellar (Mol Pharm (1987) 31:169-174) may be used. Rat cortical brain membranes are prepared as described in the [^125I]α-BTX binding assay, except that a 500-12000×g membrane fraction is prepared. Membranes (30-150 μg) are incubated with 30-100 pM of the epibatidine analog [^125I]-IPH ((+/−)-exo-2-(2-iodo-5-pyridyl)-7-azabicyclo-[2,2,1]heptane) together with test compound in HB for 1 hour at room temperature with gentle shaking. Membranes may be recovered as described for the [^125I]α-BTX binding assay. Non-specific binding may be determined by 100 μM carbachol. Typically specific binding is about 84%.
Analysis of Binding Data Obtained in α7 nAChR or α4 nAChR Receptor Assays
IC50 values and pseudo Hill coefficients (nH) may be calculated using the non-linear curve fitting program ALLFIT (DeLean A, Munson P J and Rodbard D (1977) Am. J. Physiol., 235:E97-E102). […] Ki values may be estimated using the general Cheng-Prusoff equation:
Ki=[IC50]/((2+ligand/KD)^n)^1/n−1)
where a value of n=1 is used whenever nH<1.5 and a value of n=2 is used when nH≧1.5. To account for variability, assays may be performed in triplicate and variability will typically be ±5%. Ki values may be determined using six to 11 drug concentrations.

T1 sequence (P12390 25-500): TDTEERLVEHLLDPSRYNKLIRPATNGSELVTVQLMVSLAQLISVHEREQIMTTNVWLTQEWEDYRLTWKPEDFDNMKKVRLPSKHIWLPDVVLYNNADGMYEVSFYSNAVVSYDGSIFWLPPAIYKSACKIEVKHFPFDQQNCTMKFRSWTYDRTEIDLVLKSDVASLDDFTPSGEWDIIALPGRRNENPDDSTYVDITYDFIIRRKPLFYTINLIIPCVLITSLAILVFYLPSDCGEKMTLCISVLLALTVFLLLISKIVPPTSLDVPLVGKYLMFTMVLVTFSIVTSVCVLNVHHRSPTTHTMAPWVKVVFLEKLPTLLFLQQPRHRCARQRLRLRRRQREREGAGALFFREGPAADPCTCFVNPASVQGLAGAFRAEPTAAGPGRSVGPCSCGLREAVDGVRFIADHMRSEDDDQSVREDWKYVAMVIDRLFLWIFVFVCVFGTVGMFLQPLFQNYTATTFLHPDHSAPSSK
T1 sequence (P09483 31-630): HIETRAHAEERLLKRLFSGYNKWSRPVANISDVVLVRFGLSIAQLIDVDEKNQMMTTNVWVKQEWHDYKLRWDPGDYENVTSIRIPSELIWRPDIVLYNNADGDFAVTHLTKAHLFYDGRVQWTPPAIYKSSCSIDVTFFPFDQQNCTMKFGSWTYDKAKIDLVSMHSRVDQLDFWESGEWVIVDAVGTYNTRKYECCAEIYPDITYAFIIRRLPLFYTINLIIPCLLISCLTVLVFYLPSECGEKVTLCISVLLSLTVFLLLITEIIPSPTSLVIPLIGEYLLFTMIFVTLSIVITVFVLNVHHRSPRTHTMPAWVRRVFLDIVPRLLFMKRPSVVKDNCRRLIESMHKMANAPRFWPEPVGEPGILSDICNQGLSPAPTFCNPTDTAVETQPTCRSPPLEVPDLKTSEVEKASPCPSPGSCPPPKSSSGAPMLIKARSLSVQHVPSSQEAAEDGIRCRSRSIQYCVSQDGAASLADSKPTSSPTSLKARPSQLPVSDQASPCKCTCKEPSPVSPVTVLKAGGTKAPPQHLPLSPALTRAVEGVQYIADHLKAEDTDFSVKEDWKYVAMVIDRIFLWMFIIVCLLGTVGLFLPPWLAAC

In the case of `Ic1ccc(C2CC3CCC2N3)cn1` (racemic) [[^125I]-IPH, (+/−)-exo-2-(2-iodo-5-pyridyl)-7-azabicyclo-[2,2,1]heptane], the Kd is reported as 64 pM.
